In patent US9901097B2, “Agricultural and horticultural fungicidal composition” (Nippon Soda Co., Ltd., priority 2011, dated 2018):
Where two headings read alike, the source gives them in different places.

How the values were obtained:
Botrytis cinerea = assay: Sterilization test (growth inhibition of Botrytis cinerea in potato dextrose medium, 96-well microplate, turbidity 405 nm); format: cell-based; settings: for inhibition at 0.1 ppm: drug I alone 0.1 ppm
Description: The solutions thus obtained were mixed to prepare fungicidal compositions.
Conidia of Botrytis cinerea were added to and dispersed in a potato dextrose culture medium. A fungicidal composition was added thereto and mixed. This was dispensed in a 96-well microplate and cultured at 20° C. for 3 days in a dark setting. Then, the turbidity was measured at a wavelength of 405 nm in a microplate reader. From comparison with the measured value of turbidity in the case of non-treatment (without the addition of the fungicidal composition), the growth inhibition rate of Botrytis cinerea (%) was calculated. The test was carried out in duplicate. Further, the expected value of the growth inhibition was calculated based on Colby's equation.
(§1) In addition, the Colby's equation is E=M+N−MN/100. Here, E is the expected value of a growth inhibition rate (%), M is the growth inhibition rate (%) calculated from the measurement with the use of the drug I alone, and N is the growth inhibition rate (%) calculated from the measurement with the use of the drug II alone. Additionally, in Tables, the expected values with the use of the drug alone were not shown, because they were the same as the values calculated from the measurement.
At the concentrations shown in Tables 6 to 8, the drug I and the drug II were dissolved separately in dimethyl sulfoxide. The obtained solution was mixed to prepare a fungicidal composition.
Using the same methods as in Example 1 and Comparative Example 1, the sterilization test was carried out. Additionally, in Tables, the expected values with the use of the drug alone were not shown, because they were the same as the values calculated from the measurement.

[1] = system: cucumber gray mold disease pathogens (Botrytis cinerea); assay: Control test for cucumber gray mold disease (sprayed cucumber seedlings); format: in vivo; settings: for pest or weed control at 10 ppm / pest or weed control at 25 ppm / pest or weed control at 100 ppm / pest or weed control at 400 ppm / pest or weed control at 1.6 ppm / pest or weed control at 6.3 ppm / pest or weed control at 0.4 ppm: Botrytis cinerea; for pest or weed control at 10 ppm: drug I alone 10 ppm; for pest or weed control at 25 ppm: drug II alone 25 ppm; for pest or weed control at 100 ppm: drug II alone 100 ppm; for pest or weed control at 400 ppm: drug II alone 400 ppm
Description: The drug I and the drug II were dissolved in an organic solvent and a surfactant, and the prepared mixed emulsifiable concentrate was diluted with water to a predetermined concentration, and sprayed to cucumber seedlings that had been cultivated in unglazed pots (cultivar “Sagamihanjiro” cotyledon stage). Additionally, in Tables, the symbol A indicating the drug I represents a nitrogen-containing heterocyclic compound represented by the formula (A), the symbol B indicating the drug I represents a nitrogen-containing heterocyclic compound represented by the formula (B), and the symbol C indicating the drug I represents a nitrogen-containing heterocyclic compound represented by the formula (C). Further, the number indicating the drug II represents each of the compounds described in the numbers described above. Additionally, “-” in Tables represents that the drug was not used.
After air-drying at room temperature, a suspension of the conidia of cucumber gray mold disease pathogens (Botrytis cinerea) was inoculated by dropwise addition and held in a dark room at 20° C. with a high humidity for 3, 4, or 5 days. By investigation on the state of lesion appearance in leaves with comparison with a non-treatment case, the controlling effect was determined. The test was carried out in duplicate. In addition, the expected value of the controlling effect was calculated based on Colby's equation.
(§2) At the same time, in Comparative Example, in the case of using the drug I only and the case of using the drug II only, the test was carried out by the same method.
as §1, with “Additionally,” for “In addition,”, “the controlling effect” for “a growth inhibition rate”, “controlling effect” for “growth inhibition rate”, “were” for “were not shown, because they were”, “measurement, and were thus not shown.” for “measurement.”

[2] = system: cucumber powdery mildew disease pathogens (Sphaerotheca fuliginea); assay: Control test for cucumber powdery mildew disease (sprayed cucumber seedlings); format: in vivo; settings: held 7 days after inoculation
Description: The drug I and the drug II were dissolved in an organic solvent and a surfactant, and the prepared mixed emulsifiable concentrate was diluted with water to a predetermined concentration, and sprayed to cucumber seedlings that had been cultivated in unglazed pots (cultivar “Sagamihanjiro”, cotyledon stage). Additionally, in Tables, the symbol A indicating the drug I represents a nitrogen-containing heterocyclic compound represented by the formula (A), the symbol B indicating the drug I represents a nitrogen-containing heterocyclic compound represented by the formula (B), and the symbol C indicating the drug I represents a nitrogen-containing heterocyclic compound represented by the formula (C). Further, in Tables, the number indicating the drug II represents each of the compounds described in the numbers described above. Additionally, “-” in Tables represents that the drug was not used.
After air-drying at room temperature, the conidia of cucumber powdery mildew disease pathogens (Sphaerotheca fuliginea) was inoculated by shaking off and held in a warm room for 7 days. By investigation on the state of lesion appearance in leaves with comparison with a non-treatment case, the controlling effect was determined. The test was carried out in duplicate. In addition, the expected value of the controlling effect was calculated based on Colby's equation.
as §2
as §1, with “Additionally,” for “In addition,”, “the controlling effect” for “a growth inhibition rate”, “controlling effect” for “growth inhibition rate”, “were” for “were not shown, because they were”, “measurement, and were thus not shown.” for “measurement.”

[3] = 72 h, read-out: Control effect (%), 3 days after inoculation
[4] = 120 h, read-out: Control effect (%), 5 days after inoculation
[5] = Botrytis cinerea, Example 1 (Tables 1-5), drug II alone 10 ppm, read-out: Growth inhibition rate
[6] = 120 h, Table 10, 5 days after inoculation, read-out: Control effect
[7] = 96 h, 4 days after inoculation, read-out: Control effect (%)
[8] = 96 h, Table 9, 4 days after inoculation, read-out: Control effect
[9] = Botrytis cinerea, Example 1 (Tables 1-5), drug II alone 0.02 ppm, read-out: Growth inhibition rate
[10] = Example 1 (Tables 1-5), drug II alone 0.02 ppm
[11] = Table 10, 5 days after inoculation, drug II alone 1.6 ppm
[12] = 96 h, 4 days after inoculation, drug II alone 0.4 ppm, read-out: Control effect (%)
[13] = 96 h, 4 days after inoculation, drug II alone 1.6 ppm, read-out: Control effect (%)
[14] = 96 h, 4 days after inoculation, drug II alone 6.3 ppm, read-out: Control effect (%)
[15] = Botrytis cinerea, Example 2 (Tables 6-8), drug II alone 10 ppm, read-out: Growth inhibition rate
[16] = 120 h, 5 days after inoculation, read-out: Control effect (%)

Compound: CC1(C)CN=C(c2cnc3ccccc3c2)c2cccc(F)c2O1 [A]
- inhibition at 0.1 ppm (Botrytis cinerea; Botrytis cinerea, Example 1 (Tables 1-5), read-out: Growth inhibition rate): 19%
- inhibition at 0.1 ppm (Botrytis cinerea; Botrytis cinerea, Example 2 (Tables 6-8), read-out: Growth inhibition rate): 20%
- pest or weed control at 10 ppm [1, 3]: 52%
- pest or weed control at 10 ppm ([1]; 96 h, read-out: Control effect (%), 4 days after inoculation): 37%
- pest or weed control at 10 ppm [1, 4]: 60%
- pest or weed control at 10 ppm ([1]; 120 h, read-out: Control effect, Table 10, 5 days after inoculation): 43%
- Control effect (%) ([2]; drug I alone 10 ppm): 40%

Compound: O=C(Cc1ccccc1)N/C(=N\OCC1CC1)c1c(C(F)(F)F)ccc(F)c1F [Drug 1, Cyflufenamid]
- inhibition at 10 ppm (Botrytis cinerea; [5]): 9%
- pest or weed control at 25 ppm [1, 6]: 0%

Compound: CCCOC/C(=N\c1ccc(Cl)cc1C(F)(F)F)n1ccnc1 [Drug 2, Triflumizole]
- inhibition at 2 ppm (Botrytis cinerea; Botrytis cinerea, Example 1 (Tables 1-5), drug II alone 2 ppm, read-out: Growth inhibition rate): 59%
- pest or weed control at 100 ppm [1, 7]: 1%
- pest or weed control at 400 ppm [1, 8]: 64%
- pest or weed control at 100 ppm [1, 6]: 33%

Compound: COC(=O)NC(=S)Nc1ccccc1NC(=S)NC(=O)OC [Drug 3, Thiophanate-methyl]
- inhibition at 0.02 ppm (Botrytis cinerea; [9]): 0%
- pest or weed control at 1.6 ppm ([1]; 96 h, Table 9, 4 days after inoculation, drug II alone 1.6 ppm, read-out: Control effect): 3%
- pest or weed control at 6.3 ppm ([1]; 120 h, Table 10, 5 days after inoculation, drug II alone 6.3 ppm, read-out: Control effect): 89%

Compound: CC(=O)O.CC(=O)O.CC(=O)O.NC(N)=NCCCCCCCCNCCCCCCCCN=C(N)N [Drug 4, Iminoctadine acetate]
- Growth inhibition rate (Botrytis cinerea; [10]): 27%
- Control effect [1, 11]: 0%
- Control effect ([1]; Table 10, 5 days after inoculation, drug II alone 6.3 ppm): 41%

Compound: CCCCCCCCCCCCc1ccc(S(=O)(=O)O)cc1.CCCCCCCCCCCCc1ccc(S(=O)(=O)O)cc1.CCCCCCCCCCCCc1ccc(S(=O)(=O)O)cc1.NC(N)=NCCCCCCCCNCCCCCCCCN=C(N)N [Drug 5, Iminoctadine albesilate]
- Growth inhibition rate (Botrytis cinerea; [10]): 6%
- Control effect ([1]; Table 10, 5 days after inoculation, drug II alone 0.4 ppm): 0%
- Control effect [1, 11]: 0%

Compound: COC(=O)NCc1cc(/C(C)=N/OCc2cccc(C)n2)ccc1Cl [Drug 29, Pyribencarb]
- inhibition at 0.02 ppm (Botrytis cinerea; [9]): 22%
- pest or weed control at 0.4 ppm [1, 12]: 0%
- pest or weed control at 1.6 ppm [1, 13]: 0%
- pest or weed control at 6.3 ppm [1, 14]: 37%

Compound: Cn1nnnc1/C(=N\OCc1cccc(NC(=O)OC(C)(C)C)n1)c1ccccc1 [Drug 38]
- inhibition at 10 ppm (Botrytis cinerea; [5]): 9%
- pest or weed control at 100 ppm [1, 8]: 0%

Compound: CC(C)OC(=O)C(C(=O)OC(C)C)=C1SCCS1 [Drug 41, Isoprothiolane]
- inhibition at 10 ppm (Botrytis cinerea; [15]): 10%

Compound: C/C(=N\C#N)N(C)Cc1ccc(Cl)nc1 [Drug 42, Acetamiprid]
- inhibition at 10 ppm (Botrytis cinerea; [15]): 0%
- pest or weed control at 25 ppm [1, 7]: 0%
- pest or weed control at 400 ppm [1, 16]: 0%

Compound: C[C@@H]1[C@@H](c2ccc(Cl)cc2)SC(=O)N1C(=O)NC1CCCCC1 [Drug 43, Hexythiazox]
- inhibition at 10 ppm (Botrytis cinerea; [15]): 0%
- pest or weed control at 400 ppm ([1]; 96 h, read-out: Control effect, Table 11, 4 days after inoculation): 2%
- pest or weed control at 100 ppm [1, 4]: 0%
- pest or weed control at 400 ppm [1, 4]: 0%

Compound: CCc1ccc(C(=O)NN(C(=O)c2cc(C)cc(C)c2)C(C)(C)C)cc1 [Drug 44, Tebufenozide]
- inhibition at 10 ppm (Botrytis cinerea; [15]): 0%
- pest or weed control at 400 ppm ([1]; 96 h, Table 11, 4 days after inoculation, read-out: Control effect): 22%
- pest or weed control at 400 ppm [1, 16]: 0%

Compound: O=[N+]([O-])NC1=NCCN1Cc1ccc(Cl)nc1 [Drug 45, Imidacloprid]
- inhibition at 10 ppm (Botrytis cinerea; [15]): 0%

Compound: CN1COCN(Cc2cnc(Cl)s2)/C1=N\[N+](=O)[O-] [Drug 46, Thiamethoxam]
- inhibition at 10 ppm (Botrytis cinerea; [15]): 0%

Compound: CN/C(=N\[N+](=O)[O-])NCc1cnc(Cl)s1 [Drug 47, Clothianidin]
- inhibition at 10 ppm (Botrytis cinerea; [15]): 4%

Compound: CCOP(=S)(OCC)Oc1nc(Cl)c(Cl)cc1Cl [Drug 48, Chlorpyrifos]
- inhibition at 10 ppm (Botrytis cinerea; [15]): 0%

Compound: CS/C(C)=N\OC(=O)N(C)SN(C)C(=O)O/N=C(\C)SC [Drug 49, Thiodicarb]
- inhibition at 10 ppm (Botrytis cinerea; [15]): 0%

Compound: CN/C(=N/CC1CCOC1)N[N+](=O)[O-] (stereo not drawn) [Drug 51, Dinotefuran]
- inhibition at 10 ppm (Botrytis cinerea; [15]): 0%

Compound: CCOc1ccc(C(C)(C)COCc2cccc(Oc3ccccc3)c2)cc1 [Drug 52, Etofenprox]
- inhibition at 10 ppm (Botrytis cinerea; [15]): 4%

Compound: N#Cc1nn(-c2c(Cl)cc(C(F)(F)F)cc2Cl)c(N)c1[S+]([O-])C(F)(F)F (stereo not drawn) [Drug 53, Fipronil]
- inhibition at 10 ppm (Botrytis cinerea; [15]): 12%

Compound: CC[S+]([O-])c1c(C#N)nn(-c2c(Cl)cc(C(F)(F)F)cc2Cl)c1N (stereo not drawn) [Drug 54, Ethiprole]
- inhibition at 10 ppm (Botrytis cinerea; [15]): 2%

Compound: CC1=NNC(=O)N(/N=C/c2cccnc2)C1 [Drug 55, Pymetrozine]
- inhibition at 10 ppm (Botrytis cinerea; [15]): 3%

Compound: Cc1nc(C(F)(F)F)c(C(=O)Nc2c(Br)cc(OC(F)(F)F)cc2Br)s1 [Drug 56, Thifluzamide]
- inhibition at 10 ppm (Botrytis cinerea; [15]): 28%

Compound: CC(C)N1C(=O)N(c2ccccc2)CS/C1=N\C(C)(C)C [Drug 57, Buprofezin]
- inhibition at 10 ppm (Botrytis cinerea; [15]): 0%

Compound: O=C(Nc1ccccc1-c1ccc(Cl)cc1)c1cccnc1Cl [Drug 58, Boscalid]
- pest or weed control at 0.4 ppm [1, 12]: 0%
- pest or weed control at 1.6 ppm [1, 13]: 0%
- pest or weed control at 6.3 ppm [1, 14]: 39%

Compound: CCOCn1c(-c2ccc(Cl)cc2)c(C#N)c(Br)c1C(F)(F)F [Drug 59, Chlorfenapyr]
- pest or weed control at 400 ppm [1, 7]: 0%

Compound: CCCCc1c(C)nc(NCC)nc1OS(=O)(=O)N(C)C [Drug 60, Bupirimate]
- pest or weed control at 25 ppm [1, 3]: 0%
- Control effect (%) ([2]; drug II alone 6.3 ppm): 10%
- Control effect (%) ([2]; drug II alone 25 ppm): 50%

Compound: Cc1cc(C(F)(F)F)nn1CC(=O)N1CCC(c2nc(C3=NOC(c4c(F)cccc4F)C3)cs2)CC1 (stereo not drawn) [Drug 61]
- pest or weed control at 6.3 ppm ([1]; 72 h, 3 days after inoculation, drug II alone 6.3 ppm, read-out: Control effect (%)): 0%
- pest or weed control at 100 ppm ([1]; 72 h, 3 days after inoculation, read-out: Control effect (%)): 0%
- Control effect (%) ([2]; drug II alone 6.3 ppm): 0%

Compound: Manzeb [Drug 32]
- Growth inhibition rate (Botrytis cinerea; Example 1 (Tables 1-5), drug II alone 2 ppm): 11%

Compound: Spinosad [Drug 50]
- Growth inhibition rate (Botrytis cinerea; Example 2 (Tables 6-8), drug II alone 10 ppm): 0%
